Reference: patent publication US20060199230A1, “Use of prostate specific antigen to predict drug response” (Hybritech Incorporated, priority 2005, published 2006)

How the values were obtained:
[1] = test system: total PSA, proPSA, free PSA and BPSA in serum; test: Serum PSA forms at Time 0 and 1 month of dutasteride treatment; drug response = prostate volume decrease of 10% or more at 12 months (Example I); assay type: in vivo, men
Protocol: (§1) A cohort of serum samples from men greater or equal to 50 years of age with BPH were used. The PSA range was from 1.5 to 10 ng/ml (median 3.2 ng/ml). International Prostate Symptom Score (IPSS) upon entry were 11-32 (moderate to severe, median 18.5). The median Qmax (urine flow rate in cc per second) was 9.3. Men received TRUS for prostate volume at time 0 and then received dutasteride in a blinded fashion at a rate of 0.5 mg per day. Serum was obtained at 0, 1, 3, and 12 months and was assayed for total PSA, proPSA, free PSA and BPSA. IPSS symptom scores were determined at 0, 1 and 12 months. Additional TRUS for prostate volume was performed at 12 months after the start of drug treatment.
Serum from placebo and drug-treated men were tested for levels of PSA forms at Time 0 (pretreatment baseline), and at 1, 3 and 12 months after the start of placebo or drug treatment. […] In this plot, the decrease in prostate volume by 10% or more was used as the definition of drug response.

[2] = test system: total PSA, proPSA, free PSA and BPSA in serum; test: Serum PSA forms at Time 0 and 1 month of dutasteride treatment; drug response = IPSS decrease of 2 or more at 12 months (Example II); assay type: in vivo, men
Protocol: as §1
The concentrations of total PSA, free PSA, proPSA, and BPSA were examined at Time 0 (pretreatment baseline) and at 1 month after drug treatment. Drug response was defined as men who had improvement (decrease) in their IPSS of equal to 2 or greater after 12 months of treatment. […] The increases in the ratio of BPSA to total PSA and the ratio of BPSA to free PSA were also highly significant.
Another method of determining a cutoff for clinical utility is to calculate the Odds Ratio of a response to drug treatment at 12 months, based on the percentage change in a measured parameter at 1 month. In this case, the odds of responding to the drug (drop of 2 or more in the IPSS at 12 months) increases with increasing ratio of BPSA to proPSA at 1 month. […] With a >250% increase of BPSA to proPSA ratio over baseline at 1 month, there is at least a 2-fold increase in the odds of having a drug response at 12 months. An Odds Ratio of at least 2 is the preferred embodiment of the invention. Using Odds Ratio as a means to set a cutoff for the increase in the ratio of BPSA to proPSA would have a preferred cutoff of 250%.

[3] = about 1 month after drug administration, men with 10% or greater decrease in prostate volume at 12 months
[4] = median after 1 month of drug, 0.5 mg per day, men with decrease of 10% or more in prostate volume at 12 months
[5] = median, pretreatment baseline, drug-treated men with decrease of 10% or more in prostate volume at 12 months
[6] = Table 3, samples with a decrease of 2 or more in IPSS
[7] = about 1 month, IPSS reduction of 2 or greater at 12 months as drug response
[8] = median after 1 month of drug, 0.5 mg per day, men with improvement in IPSS of 2 or more at 12 months
[9] = median, pretreatment baseline, drug-treated men with improvement in IPSS of 2 or more at 12 months

C[C@]12C=CC(=O)N[C@@H]1CC[C@@H]1[C@@H]2CC[C@]2(C)[C@@H](C(=O)Nc3cc(C(F)(F)F)ccc3C(F)(F)F)CC[C@@H]12 [dutasteride]
total PSA and free PSA levels at 3 months ([1]; 3 months of drug treatment): the levels decrease at 3 months
decrease in proPSA [1, 3]: 48%
increase in BPSA [1, 3]: 86%
increase of the ratio of BPSA to PSA [1, 3]: 78%
increase of the ratio of BPSA to free PSA [1, 3]: 52%
increase of the ratio of BPSA to proPSA over the baseline ratio [1, 3]: 450%
change in total PSA, free PSA, or the ratio of free to total PSA at 1 month ([1]; drug responders: decrease in prostate volume by 10% or more after 12 months): no significant change
change in BPSA at 1 month in drug non-responders ([1]; drug-treated men with less than 10% decrease in prostate volume at 12 months): no significant increase
BPSA, 1 Month [1, 4]: 0.186 ng/mL
BPSA/free PSA, 1 Month [1, 4]: 0.230
BPSA/proPSA, 1 Month [1, 4]: 2.26
BPSA/total PSA, 1 Month [1, 4]: 0.050
Free PSA, 1 Month [1, 4]: 0.76 ng/mL
Free PSA/total PSA, 1 Month [1, 4]: 0.214
Total PSA, 1 Month [1, 4]: 3.14 ng/mL
proPSA, 1 Month [1, 4]: 0.097 ng/mL
BPSA, Time 0 [1, 5]: 0.100 ng/mL
BPSA/free PSA, Time 0 [1, 5]: 0.151
BPSA/proPSA, Time 0 [1, 5]: 0.499
BPSA/total PSA, Time 0 [1, 5]: 0.028
Free PSA, Time 0 [1, 5]: 0.70 ng/mL
Free PSA/total PSA, Time 0 [1, 5]: 0.204
Total PSA, Time 0 [1, 5]: 3.02 ng/mL
proPSA, Time 0 [1, 5]: 0.204 ng/mL
BPSA level at three months vs baseline ([1]; three months after the start of drug administration, FIG. 1): decline below the baseline level
BPSA, median value at 1 month, Drug [2, 6]: 0.091, 0.151 ng/ml
BPSA/free PSA, median value at 1 month, Drug [2, 6]: 0.228
BPSA/total PSA, median value at 1 month, Drug [2, 6]: 0.032, 0.046
Free PSA, median value at 1 month, Drug [2, 6]: 0.62, 0.67 ng/ml
Free PSA/total PSA, median value at 1 month, Drug [2, 6]: 0.22, 0.21
Total PSA, median value at 1 month, Drug [2, 6]: 3.00, 3.08 ng/ml
decrease in proPSA [2, 7]: 41%
increase in BPSA to proPSA ratio over baseline [2, 7]: 230%
increase in BPSA/free PSA ratio [2, 7]: 44%
increase in BPSA/total PSA ratio [2, 7]: 59%
increase in BPSA ([2]; about 1 month, IPSS reduction of 2 or greater at 12 months as drug response, not significant): 25%
BPSA, 1 Month [2, 8]: 0.151 ng/mL
BPSA/free PSA, 1 Month [2, 8]: 0.228
BPSA/proPSA, 1 Month [2, 8]: 1.32
BPSA/total PSA, 1 Month [2, 8]: 0.046
Free PSA, 1 Month [2, 8]: 0.67 ng/mL
Free PSA/total PSA, 1 Month [2, 8]: 0.21
Total PSA, 1 Month [2, 8]: 3.14 ng/mL
proPSA, 1 Month [2, 8]: 0.103 ng/mL
BPSA, Time 0 [2, 9]: 0.120 ng/mL
BPSA/free PSA, Time 0 [2, 9]: 0.158
BPSA/proPSA, Time 0 [2, 9]: 0.584
BPSA/total PSA, Time 0 [2, 9]: 0.029
Free PSA, Time 0 [2, 9]: 0.77 ng/mL
Free PSA/total PSA, Time 0 [2, 9]: 0.19
Total PSA, Time 0 [2, 9]: 3.68 ng/mL
proPSA, Time 0 [2, 9]: 0.253 ng/mL
difference in any PSA-related parameter, Time 0 vs 1 month, drug non-responders ([2]; men with IPSS improvement of less than 2): None of the placebo samples, or the men with IPSS improvement of less than 2 (drug non-responders), showed statistically a significant difference
